Earlier results, collected in patent US11992485B2, “Analgesic formulations and methods for reduced postoperative nausea and vomiting and enhanced postoperative pain relief” (Hutchison Health, LLC, priority 2013, dated 2024).
Where a name gives a salt, the structure may show the parent alone.

What was measured:
[1] = test system: Lumbar Laminectomy patients
[2] = Table 2: 12 hr., Rahmanian et al.

% of patients with NO PONV (50 patients; Table 1: first 24-48 hours post-surgery, Patel et al.): 72%
patients who developed PONV (50 patients; intrathecal, Patel): 28%
Compound: CCCCN1CCCCC1C(=O)Nc1c(C)cccc1C (stereo not drawn) [Bupivacaine Hydrochloride]
decrease of postoperative surgical pain compared with 30 ml Normal Saline ([1]; 30 mL of 0.25%, infiltrative field block at surgical closure, Rahmanian): no more effective than 30 ml Normal Saline
Patients with MILD PAIN [1, 2]: 0%
Patients with NO PAIN [1, 2]: 0%
VAS scores at rest compared with control Normal Saline group ([1]; subjective linear VAS, Rahmanian): higher
